Source: patent US9850283B2, “Macrocyclic inhibitors of the PD-1/PD-L1 and CD80(B7-1)/PD-L1 protein/protein interactions” (BRISTOL-MYERS SQUIBB COMPANY, priority 2013, dated 2017)
Positions of bridges follow the written chain, without caps; N, C: chain ends. Non-standard residues stand in square brackets, D forms with d. Residues, ends and D or L forms follow the SMILES beside them. ξ: configuration not given here. Bta = N[C@@H](Cc1csc2ccccc12)C(=O)O; Hyp = O=C(O)[C@@H]1C[C@@H](O)CN1; NMeNle = CCCC[C@H](NC)C(=O)O; NMeS = CN[C@@H](CO)C(=O)O; hSer = N[C@@H](CCO)C(=O)O; NMeA = CN[C@@H](C)C(=O)O; ξC = NC(CS)C(=O)O

Legend:
[1] = target: T1, Human PD-L1/PD-1 (Homo sapiens, UniProt Q9NZQ7); assay: HTRF PD-1-Ig/PD-L1-His binding assay (human PD-L1); settings: cluster symbol; read-out: HTRF IC50 cluster
T1 construct: made in house; host or cells: HEK293T
Procedure, shortened: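 Readout: time-resolved FRET between Eu cryptate-labeled anti-Ig (1 nM final) and APC-labeled anti-His (20 nM final) antibodies. These detect interaction of Fc-fused PD-1 with His-tagged human PD-L1 in dPBS containing 0.1% BSA and 0.05% Tween-20.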

[2] = target: T2, LK35.2-hPD-L1 cells / PE-labeled PD-1-Ig (Homo sapiens, UniProt Q9NZQ7); assay: LK35.2-hPD-L1 cell binding high-content screening assay; format: cell-based; settings: cell binding assay, cell line not given; cluster symbol; read-out: CBA IC50 cluster
T2 construct: expressed in transfected cells; host or cells: LK35.2 mouse B cell line
Procedure, shortened: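 Mouse LK35.2 B cells stably over-expressing human PD-L1, cultured overnight, treated with compound plus PE-labeled human PD-1-Ig (1 nM final) in RPMI/10% FCS for 1 h at 37 °C. After washing, bound fluorescence quantified by high-content imaging.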

T1 sequence (Q9NZQ7 with tags, fused parts or gaps): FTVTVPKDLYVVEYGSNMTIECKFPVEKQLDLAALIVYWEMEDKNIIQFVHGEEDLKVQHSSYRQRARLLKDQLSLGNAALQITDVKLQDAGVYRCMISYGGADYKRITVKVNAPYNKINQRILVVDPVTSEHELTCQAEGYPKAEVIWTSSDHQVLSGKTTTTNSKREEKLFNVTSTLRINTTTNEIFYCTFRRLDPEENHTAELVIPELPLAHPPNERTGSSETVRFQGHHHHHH
T2 sequence (Q9NZQ7 19-290): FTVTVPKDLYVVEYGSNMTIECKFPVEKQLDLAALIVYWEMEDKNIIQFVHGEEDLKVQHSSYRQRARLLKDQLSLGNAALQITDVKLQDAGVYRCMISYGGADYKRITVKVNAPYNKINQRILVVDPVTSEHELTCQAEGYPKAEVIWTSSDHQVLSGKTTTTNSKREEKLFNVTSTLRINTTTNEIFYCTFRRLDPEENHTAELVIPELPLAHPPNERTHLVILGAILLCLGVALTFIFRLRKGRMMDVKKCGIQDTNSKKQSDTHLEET

| IC50 [1] | IC50 [2] | SMILES |
| --- | --- | --- |
| 0.385 to 6.74 nM | 0.158 to 4.71 nM | CCCC[C@H]1C(=O)N(C)[C@@H](COCC)C(=O)N[C@@H](CCCNC(=N)N)C(=O)NC(C(=O)NCC(N)=O)CSCC(=O)N[C@@H](Cc2ccc(O)cc2)C(=O)N(C)[C@@H](C)C(=O)N[C@@H](CC(N)=O)C(=O)N2CCC[C@H]2C(=O)N[C@@H](Cc2cnc[nH]2)C(=O)N[C@@H](CC(C)C)C(=O)N2C[C@H](O)C[C@H]2C(=O)N[C@@H](Cc2c[nH]c3ccccc23)C(=O)N[C@@H](CO)C(=O)N[C@@H](Cc2c[nH]c3ccccc23)C(=O)N1C (stereo partly drawn) [Example 9043] |
| 0.385 to 6.74 nM | 0.158 to 4.71 nM | CCCC[C@H]1C(=O)N(C)[C@@H](CO)C(=O)N[C@@H](CCCNC(=N)N)C(=O)NC(C(=O)NCC(N)=O)CSCC(=O)N[C@@H](Cc2ccc(O)cc2)C(=O)N(C)[C@@H](C)C(=O)N[C@@H](CC(N)=O)C(=O)N2CCC[C@H]2C(=O)N[C@@H](Cc2cnc[nH]2)C(=O)N[C@@H](CC(C)C)C(=O)N2CCC[C@H]2C(=O)N[C@@H](Cc2c[nH]c3ccccc23)C(=O)N[C@@H](CO)C(=O)N[C@@H](Cc2csc3ccccc23)C(=O)N1C (stereo partly drawn) [Example 9044] ({CH2CO}-Y[NMeA]NPHLPWS[Bta][NMeNle][NMeS]R[ξC]G-NH2; thioether N-14) |
| 0.385 to 6.74 nM | 0.158 to 4.71 nM | CCCC[C@H]1C(=O)N[C@@H](CCCNC(=N)N)C(=O)NC(C(=O)NCC(N)=O)CSCC(=O)N[C@@H](Cc2ccc(O)cc2)C(=O)N(C)[C@@H](C)C(=O)N[C@@H](CC(N)=O)C(=O)N2CCC[C@H]2C(=O)N[C@@H](Cc2cnc[nH]2)C(=O)N[C@@H](CC(C)C)C(=O)N2C[C@H](O)C[C@H]2C(=O)N[C@@H](Cc2c[nH]c3ccccc23)C(=O)N[C@@H](CO)C(=O)N[C@@H](Cc2csc3ccccc23)C(=O)N(C)[C@@H](COCC)C(=O)N1C (stereo partly drawn) [Example 9045] ({CH2CO}-Y[NMeA]NPHL[Hyp]WS[Bta][NMeS](Et)[NMeNle]R[ξC]G-NH2; thioether N-14) |
| 0.385 to 6.74 nM | 0.158 to 4.71 nM | CCCC[C@H]1C(=O)N[C@@H](CCCNC(=N)N)C(=O)NC(C(=O)NCC(N)=O)CSCC(=O)N[C@@H](Cc2ccc(O)cc2)C(=O)N(C)[C@@H](C)C(=O)N[C@@H](CC(N)=O)C(=O)N2CCC[C@H]2C(=O)N[C@@H](Cc2cnc[nH]2)C(=O)N[C@@H](CC(C)C)C(=O)N2C[C@H](O)C[C@H]2C(=O)N[C@@H](Cc2c[nH]c3ccccc23)C(=O)N[C@@H](CO)C(=O)N[C@@H](Cc2c[nH]c3ccccc23)C(=O)N(C)[C@@H](COCC)C(=O)N1C (stereo partly drawn) [Example 9046] |
| 0.385 to 6.74 nM | 0.158 to 4.71 nM | CCCC[C@H]1C(=O)N(C)[C@@H](CCCC)C(=O)N[C@@H](CCCNC(=N)N)C(=O)NC(C(=O)NCC(N)=O)CSCC(=O)N[C@@H](Cc2ccc(O)cc2)C(=O)N(C)[C@@H](C)C(=O)N[C@@H](CC(N)=O)C(=O)N2CCC[C@H]2C(=O)N[C@@H](Cc2cnc[nH]2)C(=O)N[C@@H](CC(C)C)C(=O)N2CCC[C@H]2C(=O)N[C@@H](Cc2c[nH]c3ccccc23)C(=O)N[C@@H](CCO)C(=O)N[C@@H](Cc2c[nH]c3ccccc23)C(=O)N1C (stereo partly drawn) [Example 9047] ({CH2CO}-Y[NMeA]NPHLPW[hSer]W[NMeNle][NMeNle]R[ξC]G-NH2; thioether N-14) |
| 0.385 to 6.74 nM | 0.158 to 4.71 nM | CCCC[C@H]1C(=O)N(C)[C@@H](CCCC)C(=O)N[C@@H](CCCNC(=N)N)C(=O)NC(C(=O)NCC(N)=O)CSCC(=O)N[C@@H](Cc2ccc(O)cc2)C(=O)N(C)[C@@H](C)C(=O)N[C@@H](CC(N)=O)C(=O)N2CCC[C@H]2C(=O)N[C@@H](Cc2cnc[nH]2)C(=O)N[C@@H](CC(C)C)C(=O)N2C[C@H](O)C[C@H]2C(=O)N[C@@H](Cc2c[nH]c3ccccc23)C(=O)N[C@@H](CCO)C(=O)N[C@@H](Cc2csc3ccccc23)C(=O)N1C (stereo partly drawn) [Example 9048] ({CH2CO}-Y[NMeA]NPHL[Hyp]W[hSer][Bta][NMeNle][NMeNle]R[ξC]G-NH2; thioether N-14) |
| 0.385 to 6.74 nM | 0.158 to 4.71 nM | CCCC[C@H]1C(=O)N(C)[C@@H](CCCC)C(=O)N[C@@H](CCCNC(=N)N)C(=O)NC(C(=O)NCC(N)=O)CSCC(=O)N[C@@H](Cc2ccc(O)cc2)C(=O)N(C)[C@@H](C)C(=O)N[C@@H](CC(N)=O)C(=O)N2CCC[C@H]2C(=O)N[C@@H](Cc2cnc[nH]2)C(=O)N[C@@H](CC(C)C)C(=O)N2C[C@H](O)C[C@H]2C(=O)N[C@@H](Cc2c[nH]c3ccccc23)C(=O)N[C@@H](CCO)C(=O)N[C@@H](Cc2c[nH]c3ccccc23)C(=O)N1C (stereo partly drawn) [Example 9049] ({CH2CO}-Y[NMeA]NPHL[Hyp]W[hSer]W[NMeNle][NMeNle]R[ξC]G-NH2; thioether N-14) |
| 0.385 to 6.74 nM | > 74.3 nM | CCCC[C@H]1C(=O)N(C)[C@@H](CCCC)C(=O)N[C@@H](CCCNC(=N)N)C(=O)NC(C(=O)NCC(N)=O)CSCC(=O)N[C@@H](Cc2ccc(O)cc2)C(=O)N(C)[C@@H](C)C(=O)N[C@@H](CC(N)=O)C(=O)N2CCC[C@H]2C(=O)N[C@@H](Cc2cnc[nH]2)C(=O)N[C@@H](CCO)C(=O)N2C[C@H](O)C[C@H]2C(=O)N[C@@H](Cc2c[nH]c3ccccc23)C(=O)N[C@@H](CO)C(=O)N[C@@H](Cc2csc3ccccc23)C(=O)N1C (stereo partly drawn) [Example 9050] ({CH2CO}-Y[NMeA]NPH[hSer][Hyp]WS[Bta][NMeNle][NMeNle]R[ξC]G-NH2; thioether N-14) |
| 6.76 to 30.3 nM | 0.158 to 4.71 nM | CCCC[C@H]1C(=O)N(C)[C@@H](CCCC)C(=O)N[C@@H](CCCNC(=N)N)C(=O)NC(C(=O)NCC(N)=O)CSCC(=O)N[C@@H](Cc2ccc(O)cc2)C(=O)N(C)[C@@H](C)C(=O)N[C@@H](CC(N)=O)C(=O)N2CCC[C@H]2C(=O)N[C@@H](Cc2cnc[nH]2)C(=O)N[C@@H](CCO)C(=O)N2C[C@H](O)C[C@H]2C(=O)N[C@@H](Cc2c[nH]c3ccccc23)C(=O)N[C@@H](CO)C(=O)N[C@@H](Cc2c[nH]c3ccccc23)C(=O)N1C (stereo partly drawn) [Example 9051] ({CH2CO}-Y[NMeA]NPH[hSer][Hyp]WSW[NMeNle][NMeNle]R[ξC]G-NH2; thioether N-14) |
| 0.385 to 6.74 nM | 0.158 to 4.71 nM | CCCC[C@H]1C(=O)N(C)[C@@H](CCCC)C(=O)N[C@@H](CCCNC(=N)N)C(=O)NC(C(=O)NCC(N)=O)CSCC(=O)N[C@@H](Cc2ccc(O)cc2)C(=O)N(C)[C@@H](C)C(=O)N[C@@H](CC(N)=O)C(=O)N2CCC[C@H]2C(=O)N[C@@H](Cc2cnc[nH]2)C(=O)N[C@@H](CC(C)C)C(=O)N2CCC[C@H]2C(=O)N[C@@H](Cc2c[nH]c3ccccc23)C(=O)N[C@@H](CCO)C(=O)N[C@@H](Cc2csc3ccccc23)C(=O)N1C (stereo partly drawn) [Example 9052] ({CH2CO}-Y[NMeA]NPHLPW[hSer][Bta][NMeNle][NMeNle]R[ξC]G-NH2; thioether N-14) |
| 6.76 to 30.3 nM | 4.78 to 72.9 nM | CCCC[C@H]1C(=O)N(C)[C@@H](C)C(=O)N[C@@H](CCCNC(=N)N)C(=O)NC(C(=O)NCC(N)=O)CSCC(=O)N[C@@H](Cc2ccc(O)cc2)C(=O)N(C)[C@@H](C)C(=O)N[C@@H](CC(N)=O)C(=O)N2CCC[C@H]2C(=O)N[C@@H](Cc2cnc[nH]2)C(=O)N[C@@H](CC(C)C)C(=O)N2CCC[C@H]2C(=O)N[C@@H](Cc2c[nH]c3ccccc23)C(=O)N[C@@H](CO)C(=O)N[C@@H](Cc2csc3ccccc23)C(=O)N1C (stereo partly drawn) [Example 9053] ({CH2CO}-Y[NMeA]NPHLPWS[Bta][NMeNle][NMeA]R[ξC]G-NH2; thioether N-14) |
| 0.385 to 6.74 nM | 4.78 to 72.9 nM | CCCC[C@H]1C(=O)N(C)[C@@H](C)C(=O)N[C@@H](CCCNC(=N)N)C(=O)NC(C(=O)NCC(N)=O)CSCC(=O)N[C@@H](Cc2ccc(O)cc2)C(=O)N(C)[C@@H](C)C(=O)N[C@@H](CC(N)=O)C(=O)N2CCC[C@H]2C(=O)N[C@@H](Cc2cnc[nH]2)C(=O)N[C@@H](CC(C)C)C(=O)N2CCC[C@H]2C(=O)N[C@@H](Cc2c[nH]c3ccccc23)C(=O)N[C@@H](CO)C(=O)N[C@@H](Cc2c[nH]c3ccccc23)C(=O)N1C (stereo partly drawn) [Example 9054] ({CH2CO}-Y[NMeA]NPHLPWSW[NMeNle][NMeA]R[ξC]G-NH2; thioether N-14) |
| 0.385 to 6.74 nM | 0.158 to 4.71 nM | CCCC[C@H]1C(=O)N(C)[C@@H](C)C(=O)N[C@@H](CCCNC(=N)N)C(=O)NC(C(=O)NCC(N)=O)CSCC(=O)N[C@@H](Cc2ccc(O)cc2)C(=O)N(C)[C@@H](C)C(=O)N[C@@H](CC(N)=O)C(=O)N2CCC[C@H]2C(=O)N[C@@H](Cc2cnc[nH]2)C(=O)N[C@@H](CC(C)C)C(=O)N2C[C@H](O)C[C@H]2C(=O)N[C@@H](Cc2c[nH]c3ccccc23)C(=O)N[C@@H](CO)C(=O)N[C@@H](Cc2c[nH]c3ccccc23)C(=O)N1C (stereo partly drawn) [Example 9055] |
| 0.385 to 6.74 nM | 0.158 to 4.71 nM | CCCC[C@H]1C(=O)N[C@@H](CCCNC(=N)N)C(=O)NC(C(=O)NCC(N)=O)CSCC(=O)N[C@@H](Cc2ccc(O)cc2)C(=O)N(C)[C@@H](C)C(=O)N[C@@H](CC(N)=O)C(=O)N2CCC[C@H]2C(=O)N[C@@H](Cc2cnc[nH]2)C(=O)N[C@@H](CC(C)C)C(=O)N2C[C@H](O)C[C@H]2C(=O)N[C@@H](Cc2c[nH]c3ccccc23)C(=O)N[C@@H](CO)C(=O)N[C@@H](Cc2csc3ccccc23)C(=O)N(C)[C@@H](C)C(=O)N1C (stereo partly drawn) [Example 9056] ({CH2CO}-Y[NMeA]NPHL[Hyp]WS[Bta][NMeA][NMeNle]R[ξC]G-NH2; thioether N-14) |
| 0.385 to 6.74 nM | 0.158 to 4.71 nM | CCCC[C@H]1C(=O)N(C)[C@@H](C)C(=O)N[C@@H](CCCNC(=N)N)C(=O)NC(C(=O)NCC(N)=O)CSCC(=O)N[C@@H](Cc2ccc(O)cc2)C(=O)N(C)[C@@H](C)C(=O)N[C@@H](CC(N)=O)C(=O)N2CCC[C@H]2C(=O)N[C@@H](Cc2cnc[nH]2)C(=O)N[C@@H](CC(C)C)C(=O)N2C[C@H](O)C[C@H]2C(=O)N[C@@H](Cc2c[nH]c3ccccc23)C(=O)N[C@@H](CO)C(=O)N[C@@H](Cc2csc3ccccc23)C(=O)N1C (stereo partly drawn) [Example 9058] ({CH2CO}-Y[NMeA]NPHL[Hyp]WS[Bta][NMeNle][NMeA]R[ξC]G-NH2; thioether N-14) |
